This is an account of results in patent publication US9850283B2, “Macrocyclic inhibitors of the PD-1/PD-L1 and CD80(B7-1)/PD-L1 protein/protein interactions” (BRISTOL-MYERS SQUIBB COMPANY, priority 2013, dated 2017).

For assay [1], the target named is T1, LK35.2-hPD-L1 cells / PE-labeled PD-1-Ig (Homo sapiens, UniProt Q9NZQ7).
T1 construct: expressed in transfected cells; host or cells: LK35.2 mouse B cell line
Kind of assay: LK35.2-hPD-L1 cell binding high-content screening assay. In kind it is cell-based. The settings on record: cell binding assay, cell line not given; cluster symbol; read-out: CBA IC50 cluster. In a few lines:
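Fluorescent PD-1-Ig binding to PD-L1-expressing LK35.2 cells, imaged after washing. Conditions: 1 nM PE-PD-1-Ig, 37 °C, 1 h, RPMI with 10% fetal calf serum.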

Assay [2] addresses T2, Human PD-L1/PD-1 (Homo sapiens, UniProt Q9NZQ7).
T2 construct: made in house; host or cells: HEK293T
Kind of assay: HTRF PD-1-Ig/PD-L1-His binding assay (human PD-L1). The settings on record: cluster symbol; read-out: HTRF IC50 cluster. In a few lines: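 Soluble PD-1-Ig binding to PD-L1-His measured by HTRF in dPBS with 0.1% BSA and 0.05% Tween-20. Detection used europium cryptate anti-Ig antibody (1 nM final) and APC anti-His antibody (20 nM final) added on top of the binding reaction.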
A general note: In TR-FRET formats the signal depends on donor and acceptor labels being close together.

Positions of bridges follow the written chain, without caps; N, C: chain ends. Non-standard residues stand in square brackets, D forms with d. Residues, ends and D or L forms follow the SMILES beside them. Hyp = O=C(O)[C@@H]1C[C@@H](O)CN1; NMeNle = CCCC[C@H](NC)C(=O)O; NMeA = CN[C@@H](C)C(=O)O; Dab = NCC[C@H](N)C(=O)O; Dap = NC[C@H](N)C(=O)O

T2 sequence (Q9NZQ7 with tags, fused parts or gaps): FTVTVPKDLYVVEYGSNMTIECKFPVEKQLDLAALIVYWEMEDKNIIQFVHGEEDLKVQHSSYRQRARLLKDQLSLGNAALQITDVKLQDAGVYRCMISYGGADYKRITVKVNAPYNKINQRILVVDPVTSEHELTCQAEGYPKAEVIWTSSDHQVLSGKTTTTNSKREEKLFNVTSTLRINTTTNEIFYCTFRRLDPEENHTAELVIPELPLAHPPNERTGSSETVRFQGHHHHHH
T1 sequence (Q9NZQ7 19-290): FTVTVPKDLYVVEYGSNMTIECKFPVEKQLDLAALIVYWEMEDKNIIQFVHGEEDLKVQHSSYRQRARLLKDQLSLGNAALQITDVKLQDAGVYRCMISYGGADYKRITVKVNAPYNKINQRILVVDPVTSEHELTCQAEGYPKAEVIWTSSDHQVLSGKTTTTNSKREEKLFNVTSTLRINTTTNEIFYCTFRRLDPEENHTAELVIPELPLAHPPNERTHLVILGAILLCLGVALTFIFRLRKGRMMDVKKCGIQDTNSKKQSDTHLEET

For the compound `CCCC[C@H]1C(=O)N(C)[C@@H](CCCC)C(=O)N[C@@H](CN)C(=O)N[C@H](C(=O)NCC(N)=O)CSCC(=O)N[C@@H](Cc2ccc(O)cc2)C(=O)N(C)[C@@H](C)C(=O)N[C@@H](CC(N)=O)C(=O)N2CCC[C@H]2C(=O)N[C@@H](CN)C(=O)N[C@@H](CC(C)C)C(=O)N2C[C@H](O)C[C@H]2C(=O)N[C@@H](Cc2c[nH]c3ccccc23)C(=O)N[C@@H](CCN)C(=O)N[C@@H](Cc2c[nH]c3ccccc23)C(=O)N1C` [Example 5059] ({CH2CO}-Y[NMeA]NP[Dap]L[Hyp]W[Dab]W[NMeNle][NMeNle][Dap]CG-NH2; thioether N-14), the figures for the IC50 in assay [1] and in assay [2] were 4.78 to 72.9 nM and 0.385 to 6.74 nM, respectively.
Turning to `CCCC[C@H]1C(=O)N(C)[C@@H](CCCC)C(=O)N[C@@H](CN)C(=O)N[C@H](C(=O)NCC(N)=O)CSCC(=O)N[C@@H](Cc2ccc(O)cc2)C(=O)N(C)[C@@H](C)C(=O)N[C@@H](CC(N)=O)C(=O)N2CCC[C@H]2C(=O)N[C@@H](CN)C(=O)N[C@@H](CCC(=O)O)C(=O)N2C[C@H](O)C[C@H]2C(=O)N[C@@H](Cc2c[nH]c3ccccc23)C(=O)N[C@@H](CCN)C(=O)N[C@@H](Cc2c[nH]c3ccccc23)C(=O)N1C` [Example 5060] ({CH2CO}-Y[NMeA]NP[Dap]E[Hyp]W[Dab]W[NMeNle][NMeNle][Dap]CG-NH2; thioether N-14), the IC50 in assay [1] was in the range of 4.78 to 72.9 nM; in assay [2] it was 0.385 to 6.74 nM.
With `CCCC[C@H]1C(=O)N(C)[C@@H](CCCC)C(=O)N[C@@H](CN)C(=O)N[C@H](C(=O)NCC(N)=O)CSCC(=O)N[C@@H](Cc2ccc(O)cc2)C(=O)N(C)[C@@H](C)C(=O)N[C@@H](CC(N)=O)C(=O)N2CCC[C@H]2C(=O)N[C@@H](CN)C(=O)N[C@@H](CCC(=O)O)C(=O)N2C[C@H](O)C[C@H]2C(=O)N[C@@H](Cc2c[nH]c3ccccc23)C(=O)N[C@@H](CO)C(=O)N[C@@H](Cc2c[nH]c3ccccc23)C(=O)N1C` [Example 5061] ({CH2CO}-Y[NMeA]NP[Dap]E[Hyp]WSW[NMeNle][NMeNle][Dap]CG-NH2; thioether N-14), the IC50 in assay [1] was in the range of 0.158 to 4.71 nM; in assay [2], 0.385 to 6.74 nM.
On to `CCCC[C@H]1C(=O)N(C)[C@@H](CCCC)C(=O)N[C@@H](CN)C(=O)N[C@H](C(=O)NCC(N)=O)CSCC(=O)N[C@@H](Cc2ccc(O)cc2)C(=O)N(C)[C@@H](C)C(=O)N[C@@H](CC(N)=O)C(=O)N2CCC[C@H]2C(=O)N[C@@H](CN)C(=O)N[C@@H](CC(C)C)C(=O)N2C[C@H](O)C[C@H]2C(=O)N[C@@H](Cc2c[nH]c3ccccc23)C(=O)N[C@@H](CO)C(=O)N[C@@H](Cc2c[nH]c3ccccc23)C(=O)N1C` [Example 5063] ({CH2CO}-Y[NMeA]NP[Dap]L[Hyp]WSW[NMeNle][NMeNle][Dap]CG-NH2; thioether N-14), for which the IC50 in assay [1] lay within 0.158 to 4.71 nM; in assay [2], 0.385 to 6.74 nM.
The corresponding values for `CCCC[C@H]1C(=O)N(C)[C@@H](CCCC)C(=O)N[C@@H](CN)C(=O)N[C@H](C(=O)NCC(N)=O)CSCC(=O)N[C@@H](Cc2ccc(O)cc2)C(=O)N(C)[C@@H](C)C(=O)N[C@@H](CC(N)=O)C(=O)N2CCC[C@H]2C(=O)N[C@@H](Cc2c[nH]cn2)C(=O)N[C@@H](CCC(=O)O)C(=O)N2C[C@H](O)C[C@H]2C(=O)N[C@@H](Cc2c[nH]c3ccccc23)C(=O)N[C@@H](CCN)C(=O)N[C@@H](Cc2c[nH]c3ccccc23)C(=O)N1C` [Example 5064] ({CH2CO}-Y[NMeA]NPHE[Hyp]W[Dab]W[NMeNle][NMeNle][Dap]CG-NH2; thioether N-14) are 0.158 to 4.71 nM and 0.385 to 6.74 nM.
The corresponding values for `CCCC[C@H]1C(=O)N(C)[C@@H](CCCC)C(=O)N[C@@H](CC(C)C)C(=O)N[C@H](C(=O)NCC(N)=O)CSCC(=O)N[C@@H](Cc2ccc(O)cc2)C(=O)N(C)[C@@H](C)C(=O)N[C@@H](CC(N)=O)C(=O)N2CCC[C@H]2C(=O)N[C@@H](Cc2c[nH]cn2)C(=O)N[C@@H](CCC(=O)O)C(=O)N2C[C@H](O)C[C@H]2C(=O)N[C@@H](Cc2c[nH]c3ccccc23)C(=O)N[C@@H](CCN)C(=O)N[C@@H](Cc2c[nH]c3ccccc23)C(=O)N1C` [Example 5065] ({CH2CO}-Y[NMeA]NPHE[Hyp]W[Dab]W[NMeNle][NMeNle]LCG-NH2; thioether N-14) are 0.158 to 4.71 nM and 0.385 to 6.74 nM.
The corresponding values for `CCCC[C@H]1C(=O)N(C)[C@@H](CCCC)C(=O)N[C@@H](CC(C)C)C(=O)N[C@H](C(=O)NCC(N)=O)CSCC(=O)N[C@@H](Cc2ccc(O)cc2)C(=O)N(C)[C@@H](C)C(=O)N[C@@H](CC(=O)O)C(=O)N2CCC[C@H]2C(=O)N[C@@H](Cc2cnc[nH]2)C(=O)N[C@@H](CCC(=O)O)C(=O)N2C[C@H](O)C[C@H]2C(=O)N[C@@H](Cc2c[nH]c3ccccc23)C(=O)N[C@@H](CCN)C(=O)N[C@@H](Cc2c[nH]c3ccccc23)C(=O)N1C` [Example 5066] ({CH2CO}-Y[NMeA]DPHE[Hyp]W[Dab]W[NMeNle][NMeNle]LCG-NH2; thioether N-14) are 0.158 to 4.71 nM and 0.385 to 6.74 nM.
Consider `CCCC[C@H]1C(=O)N(C)[C@@H](CCCC)C(=O)N[C@@H](CCCNC(=N)N)C(=O)N[C@H](C(=O)NCC(=O)O)CSCC(=O)N[C@@H](Cc2ccc(O)cc2)C(=O)N(C)[C@@H](C)C(=O)N[C@@H](CC(N)=O)C(=O)N2CCC[C@H]2C(=O)N[C@@H](Cc2cnc[nH]2)C(=O)N[C@@H](CC(C)C)C(=O)N2C[C@H](O)C[C@H]2C(=O)N[C@@H](Cc2c[nH]c3ccccc23)C(=O)N[C@@H](CO)C(=O)N[C@@H](Cc2c[nH]c3ccccc23)C(=O)N1C` [Example 5068], for which the figures for the IC50 in assay [1] and in assay [2] were 0.158 to 4.71 nM and 6.76 to 30.3 nM, respectively.
For `CCCC[C@H]1C(=O)N(C)[C@@H](CCCC)C(=O)N[C@@H](CCC(=O)O)C(=O)N[C@H](C(=O)NCC(N)=O)CSCC(=O)N[C@@H](Cc2ccc(O)cc2)C(=O)N(C)[C@@H](C)C(=O)N[C@@H](CC(=O)O)C(=O)N2CCC[C@H]2C(=O)N[C@@H](Cc2cnc[nH]2)C(=O)N[C@@H](CCCCN)C(=O)N2C[C@H](O)C[C@H]2C(=O)N[C@@H](Cc2c[nH]c3ccccc23)C(=O)N[C@@H](CCCCN)C(=O)N[C@@H](Cc2c[nH]c3ccccc23)C(=O)N1C` [Example 5069] ({CH2CO}-Y[NMeA]DPHK[Hyp]WKW[NMeNle][NMeNle]ECG-NH2; thioether N-14), the IC50 in assay [1] lay in the range of 0.158 to 4.71 nM; in assay [2] it was 0.385 to 6.74 nM.
On to `CCCC[C@H]1C(=O)N(C)[C@@H](CCCC)C(=O)N[C@@H](CC(C)C)C(=O)N[C@H](C(=O)NCC(N)=O)CSCC(=O)N[C@@H](Cc2ccc(O)cc2)C(=O)N(C)[C@@H](C)C(=O)N[C@@H](CC(N)=O)C(=O)N2CCC[C@H]2C(=O)N[C@@H](CN)C(=O)N[C@@H](CC(C)C)C(=O)N2C[C@H](O)C[C@H]2C(=O)N[C@@H](Cc2c[nH]c3ccccc23)C(=O)N[C@@H](CO)C(=O)N[C@@H](Cc2c[nH]c3ccccc23)C(=O)N1C` [Example 5070] ({CH2CO}-Y[NMeA]NP[Dap]L[Hyp]WSW[NMeNle][NMeNle]LCG-NH2; thioether N-14), for which the IC50 lay within 0.158 to 4.71 nM in assay [1] and 0.385 to 6.74 nM in assay [2].
Turning to `CCCC[C@H]1C(=O)N(C)[C@@H](CCCC)C(=O)N[C@@H](CC(C)C)C(=O)N[C@H](C(=O)NCC(N)=O)CSCC(=O)N[C@@H](Cc2ccc(O)cc2)C(=O)N(C)[C@@H](C)C(=O)N[C@@H](CC(N)=O)C(=O)N2CCC[C@H]2C(=O)N[C@@H](CO)C(=O)N[C@@H](CC(C)C)C(=O)N2C[C@H](O)C[C@H]2C(=O)N[C@@H](Cc2c[nH]c3ccccc23)C(=O)N[C@@H](CCN)C(=O)N[C@@H](Cc2c[nH]c3ccccc23)C(=O)N1C` [Example 5073] ({CH2CO}-Y[NMeA]NPSL[Hyp]W[Dab]W[NMeNle][NMeNle]LCG-NH2; thioether N-14), the IC50 in assay [1] lay in the range of 0.158 to 4.71 nM; in assay [2], 0.385 to 6.74 nM.

Broadly, the IC50 is the concentration needed to halve the response being measured.
